Source: patent US10487045B2, “Adamantane derivative and use thereof” (TOHOKU UNIVERSITY, priority 2016, dated 2019)

Tested on: Kir6.2 channel deficient mice
Test: Cognitive function tests and LTP in Kir6.2 channel deficient mice
Format: in vivo
Settings: chronic treatment (two months)
Description: To confirm that TP-014 action is Kir6.2 channel inhibitory action, the action site of TP-014 was identified by the same behavioral experiment as in FIG. 4 (FIG. 8a and FIG. 8b: Y-maze test, FIG. 8c: new object recognition test method, FIG. 8d: fear conditioning test method, FIG. 8e to FIG. 8g: LTP improvement evaluation, n=5 per group) using Kir6.2 channel deficient mice. It was confirmed that cognitive dysfunction is induced in Kir6.2 defective mice. […] It was also shown that memory disturbance and LTP attenuation of Kir6.2 defective mice are not improved by TP-014 chronic treatment (two months). […] The analytical methods are the same as in Test Examples 4 to 7. Note that, Kir6.2 defective mice were obtained from Professor Susumu Seino, School of Medicine of Kobe University (Miki T et al., Proc. Natl. Acad. Sci. U.S.A. 1998, 95, 10402-10406).

## O=C(N[C@@H](c1ccccc1)[C@H]1[C@H]2C[C@@H]3C[C@](Cl)(C2)C[C@@]1(OC(=O)C(F)(F)F)C3)C(F)(F)F [TP-014, (1S,2R,3S,5S,7S)-5-chloro-2-((R)-phenyl(2,2,2-trifluoroacetamido)methyl)adamantan-1-yl 2,2,2-trifluoroacetate]
  memory disturbance and LTP attenuation of Kir6.2 defective mice: not improved
